Measurements as given in paper doi:10.1101/2022.10.06.511132v1, “Development of Enterovirus anti-viral agents that target the viral 2C protein” (biorxiv, 2022).

Experiments:
[1] = biological target: T1, EV-A71 Δ2C^116-329 (Enterovirus A71, UniProt B9VUU3); test: malachite green ATPase assay; type: biochemical
T1 construct: N-terminally truncated mature protein 2C residues 116-329, cut from the genome polyprotein; N-terminal MBP tag and C-terminal His6 (kept, MBP-Δ2C-(His)6); codon-optimised synthetic gene in pMALc5x, E. coli Rosetta 2(DE3) pLysS; active as hexamer

[2] = test system: EV-68 (EV-D68); test: microbe, parasite or virus in culture; parameters: NIAID secondary assay, virus yield reduction, visual titre; settings: Enterovirus D, read-out: EC90 µM, EV-68 VYR
[3] = test system: EV-A71; test: microbe, parasite or virus in culture; parameters: NIAID secondary assay, neutral red cytopathic effect reduction; settings: Enterovirus A, EV71 / EVA71, read-out: EC50 µM, EV-71 neutral red
[4] = test system: EV-A71; test: microbe, parasite or virus in culture; parameters: NIAID secondary assay, virus yield reduction, visual titre; settings: Enterovirus A, EV71 / EVA71, read-out: EC90 µM, EV-71 VYR
[5] = test system: EV-68 (EV-D68); test: microbe, parasite or virus in culture; parameters: NIAID secondary assay, neutral red cytopathic effect reduction; settings: Enterovirus D, read-out: EC50 µM, EV-68 neutral red

T1 sequence (B9VUU3 1227-1440, stated change not applied): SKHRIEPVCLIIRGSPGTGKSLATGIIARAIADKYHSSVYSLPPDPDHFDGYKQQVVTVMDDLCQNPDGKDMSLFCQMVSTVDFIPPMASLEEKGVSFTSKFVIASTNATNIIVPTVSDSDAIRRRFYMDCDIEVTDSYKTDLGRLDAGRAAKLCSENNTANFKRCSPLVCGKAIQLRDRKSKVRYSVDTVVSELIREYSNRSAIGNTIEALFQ

Row | Structure (SMILES) | IC50 [1] [µM] | EC90 [2] [µM] | EC50 [3] [µM] | EC90 [4] [µM] | EC50 [5] [µM]
1 | Cc1ccc2[nH]c(-c3ccc(NC(=O)c4ccc(C)c(C)c4)cc3)nc2c1 [SJW-2C-234] | 55 |  |  |  | 
2 | Cc1ccc2[nH]c(-c3ccc(NC(=O)c4cccs4)cc3)nc2c1 [SJW-2C-227] | 23.4 | 0.59 | 1.7 | 3.2 | 0.52
3 | O=C(Nc1ccc(-c2nc3cc4ccccc4cc3[nH]2)cc1)c1cccc(Br)c1 [SJW-2C-239] | 33.1 |  |  |  | 
